Data set [1] concerns HIV-1 E138K mutant strain. The data set is described as follows: Anti-HIV-1 activity in MT-4 cells (MTT method), E138K. In kind it is cell-based. Conditions: Human immunodeficiency virus 1, MT4, read-out: EC50 (nM) E138K. The protocol:
(§1) Selected compounds were screened for inhibitory activity against HIV-1 using MTT method as describe previously by Christophe. Pannecouque et al. Nat. Protoc. 3 (2008) 427-434, and Rudi Pauwels et al. J. Virol. Methods 20 (1988) 309-321. Briefly, MT-4 cells infected with HIV-1 can only survive for 5 to 7 days without any treatment, but when HIV-1 inhibitors were added, they can protect MT-4 cell from cytopathic. Serial solution of compounds was added to MT-4 cells after infected with HIV-1, MTT method was used to detect the survival rate after culture for 5 to 7 days. EC50 value was defined as compound concentration required to achieve 50% protection of MT-4 cells against HIV-1-induced cytopathic effect. In vitro anti-HIV-1 assay was supported by Rega Institute for Medical Research.
(§2) • (1) MT-4 cells infected with HIV-1 viral strains (IIIB, L100I, K103N, Y181C, Y188L, E138K, F227L/V106A, Y181C/K103N) were provided by Rega Institute for Medical Research, Katholieke Universiteit Leuven, Belgium. • (2) MTT and formazan: sigma Chemical Co. • (3) Preparation of compounds: Stock solutions (10×final concentration) of test compounds is diluted with double distilled water for 5 folds and 5 concentrations of one compound are prepared. • (4) Reference drugs: Nevirapine (NVP), Efavirenz (EFV), Etravirine (ETV), Rilpivirine (RPV) and Azidothymidine (AZT). • (5) Method (MTT method): Serial five-fold dilutions of test compounds were added to cultured MT-4 cells infected with HIV-1, after 5 to 7 days, MTT was added and cultured for a few hours. Medium was removed and lysate was added followed by formazan, OD value was determined in 690 nm and 540 nm by microplate reader, and EC50 value was calculated. 2. Method
(§3) The MTT method was described briefly as follows: 96-well plastic microtiter trays were filled with 100 μL of complete medium. Subsequently, serial of tested compounds was added (25 μL) to two series of triplicate wells so as to allow simultaneous evaluation of their effects on HIV- and mock infected cells. 50 μL of 1×10^4 cells/mL MT-4 cells were added. After cultured for 5 days at 37° C. in humidified atmosphere in the presence of 5% CO2, MTT was added and cultured for another 2 h, then medium was removed and 100 μL isopropanol solution was added to lyse the cells. Formazan crystals were added and vibrated platform shaker for 10 min to solubilize the formazan crystals. Absorbances at 690 nm and 540 nm were read by using spectrophotometrically. EC50 was defined as the concentration achieving 50% protection from the cytopathic effect of the virus in infected cells.
(§4) Selected compounds prepared as described above were assayed in MT-4 cells infected with wide-type IIIB, L100I, K103N, Y181C, Y188L, E138K or double mutant RES056 (Y181C/K103N) and F227L/V106A HIV-1 strains. Nevirapine, Efavirenz, Etravirine, Rilpivirine and Azidothymidine were selected as reference drugs. The results were listed below as EC50 value (nM)

Data set [2] concerns HIV-1 L100I mutant strain. The data set is described as follows: Anti-HIV-1 activity in MT-4 cells (MTT method), L100I. The data set is classed as cell-based. As to conditions: Human immunodeficiency virus 1, MT4, read-out: EC50 (nM) L100I. On the procedure: as §1, §2, §3, §4
Data set [3] has as its system wide-type HIV-1 (strain IIIB). The data set is described as follows: Anti-HIV-1 activity in MT-4 cells (MTT method), wild-type. In kind it is cell-based. On the procedure: as §1, §2, §3, §4
Data set [4] deals with HIV-1 K103N mutant strain. The data set is described as follows: Anti-HIV-1 activity in MT-4 cells (MTT method), K103N. In kind it is cell-based. Conditions: Human immunodeficiency virus 1, MT4, read-out: EC50 (nM) K103N. The protocol:
as §1, §2, §3, §4

The subject of data set [5] is HIV-1 Y188L mutant strain. The data set is described as follows: Anti-HIV-1 activity in MT-4 cells (MTT method), Y188L. Conditions: Human immunodeficiency virus 1, MT4, read-out: EC50 (nM) Y188L. The data set is classed as cell-based. On the procedure: as §1, §2, §3, §4
The subject of data set [6] is HIV-1 double mutant RES056 (Y181C/K103N). The data set is described as follows: Anti-HIV-1 activity in MT-4 cells (MTT method), RES056. Conditions: Human immunodeficiency virus 1, MT4, read-out: EC50 (nM) Y181C/K103N. The data set is classed as cell-based. The protocol:
as §1, §2, §3, §4

The test system of data set [7] is HIV-1 Y181C mutant strain. The data set is described as follows: Anti-HIV-1 activity in MT-4 cells (MTT method), Y181C. As to conditions: Human immunodeficiency virus 1, MT4, read-out: EC50 (nM) Y181C. In kind it is cell-based. The protocol:
as §1, §2, §3, §4

The test system of data set [8] is HIV-1 F227L/V106A double mutant strain. The data set is described as follows: Anti-HIV-1 activity in MT-4 cells (MTT method), F227L/V106A. In kind it is cell-based. As to conditions: Human immunodeficiency virus 1, MT4, read-out: EC50 (nM) F227L/V106A. The protocol: as §1, §2, §3, §4
[9] abbreviates: Human immunodeficiency virus 1, IIIB, MT4, read-out: EC50 (nM) wt.

Like-named read-outs stand apart in the source and are kept apart here.

Turning to `Cc1cc(C#N)cc(C)c1Oc1nc(Nc2ccc(C#N)cc2)nc2c1SCCC2` [IA-1-1, 4-((2-((4-cyanophenyl)amino)-7,8-dihydro-6H-thiopyrano[3,2-d]pyrimidin-4-yl)oxy)-3,5-dimethylbenzonitrile], the melting point lay in the range of 253 to 254 °C. The EC50 in data set [1] lay within 10 to 100 nM. Also, the EC50 in data set [2] is 10 to 100 nM. For the same compound, the EC50 in data set [3] (setting [9]) was under 10 nM. For the same compound, the EC50 in data set [4] was under 10 nM. Also, the EC50 in data set [5] was in the range of 10 to 100 nM. In data set [6], the EC50 lay in the range of 10 to 100 nM. The EC50 in data set [7] lay within 10 to 100 nM. For the same compound, the EC50 in data set [8] lay in the range of 10 to 100 nM.
Take `Cc1cc(C#N)cc(C)c1Oc1nc(Nc2ccc(C#N)cc2)nc2c1[S+]([O-])CCC2` (centres unmarked) [IA-1-3, 4-((2-((4-cyanophenyl)amino)-5-oxido-7,8-dihydro-6H-thiopyrano[3,2-d]pyrimidin-4-yl)oxy)-3,5-dimethylbenzonitrile]: the melting point lay within 247 to 249 °C. The EC50 in data set [1] was in the range of 10 to 100 nM. Moreover, the EC50 in data set [2] was over 100 nM. Moreover, the EC50 in data set [3] (setting [9]) is under 10 nM. The EC50 in [4] was in the range of 10 to 100 nM. In [5], the EC50 is 10 to 100 nM. The EC50 in [6] is over 100 nM. The EC50 in data set [7] lay within 10 to 100 nM. Moreover, in data set [8], the EC50 is over 100 nM.
Take `Cc1cc(C#N)cc(C)c1Oc1nc(NC2CCN(Cc3cccc(C(N)=O)c3)CC2)nc2c1SCCC2` [IIA-1-9, 3-((4-((4-(4-cyano-2,6-dimethylphenoxy)-7,8-dihydro-6H-thiopyrano[3,2-d]pyrimidin-2-yl)amino)piperidin-1-yl)methyl)benzamide]: the EC50 in data set [1] was 10 to 100 nM; in [2], 10 to 100 nM; in [3] (setting [9]), under 10 nM; in data set [4], 10 to 100 nM; in data set [5], 10 to 100 nM; in data set [6] it was over 100 nM. Further, the EC50 in [7] is 10 to 100 nM; in data set [8], over 100 nM.
As for `CCOC(=O)c1ccc(CN2CCC(Nc3nc4c(c(Oc5c(C)cc(C#N)cc5C)n3)SCCC4)CC2)cc1` [IIA-1-10, ethyl 4-((4-((4-(4-cyano-2,6-dimethylphenoxy)-7,8-dihydro-6H-thiopyrano[3,2-d]pyrimidin-2-yl)amino)piperidin-1-yl)methyl)benzoate], the EC50 was over 100 nM in [1]; over 100 nM in data set [2]; 10 to 100 nM in [3] (setting [9]); 10 to 100 nM in data set [4]; over 100 nM in data set [5]; over 100 nM in data set [6]. In addition, the EC50 in data set [7] and in [8] was over 100 nM throughout.
Regarding `Cc1cc(C#N)cc(C)c1Oc1nc(NC2CCN(Cc3ccc(S(C)(=O)=O)cc3)CC2)nc2c1SCCC2` [IIA-1-11, 3,5-dimethyl-4-((2-((1-(4-(methylsulfonyl)benzyl)piperidin-4-yl)amino)-7,8-dihydro-6H-thiopyrano[3,2-d]pyrimidin-4-yl)oxy)benzonitrile], the EC50 in data set [1] is 10 to 100 nM; in data set [2], 10 to 100 nM; in data set [3] (setting [9]) it was under 10 nM; in [4] it was under 10 nM; in data set [5], 10 to 100 nM; in [6], 10 to 100 nM. The EC50 in data set [7] and in [8] was 10 to 100 nM each time.
On to `Cc1cc(C#N)cc(C)c1Oc1nc(NC2CCN(Cc3ccc([N+](=O)[O-])cc3)CC2)nc2c1SCCC2` [IIA-1-12, 3,5-dimethyl-4-((2-((1-(4-nitrobenzyl)piperidin-4-yl)amino)-7,8-dihydro-6H-thiopyrano[3,2-d]pyrimidin-4-yl)oxy)benzonitrile], for which the EC50 is 10 to 100 nM in data set [1]; over 100 nM in data set [2]; under 10 nM in data set [3] (setting [9]); 10 to 100 nM in [4]; 10 to 100 nM in data set [5]; over 100 nM in data set [6]. The EC50 in data set [7] and in [8] was over 100 nM in each case.
For the compound `Cc1cc(C#N)cc(C)c1Oc1nc(NC2CCN(Cc3ccc(N)cc3)CC2)nc2c1SCCC2` [IIA-1-13, 4-((2-((1-(4-aminobenzyl)piperidin-4-yl)amino)-7,8-dihydro-6H-thiopyrano[3,2-d]pyrimidin-4-yl)oxy)-3,5-dimethylbenzonitrile], the EC50 in data set [1] is 10 to 100 nM; in data set [2] it was 10 to 100 nM; in data set [3] (setting [9]), under 10 nM; in data set [4] it was under 10 nM; in data set [5], 10 to 100 nM; in data set [6] it was over 100 nM. The EC50 is 10 to 100 nM in data set [7] and over 100 nM in [8].
Turning to `Cc1cc(C#N)cc(C)c1Oc1nc(NC2CCN(Cc3ccc(NS(C)(=O)=O)cc3)CC2)nc2c1SCCC2` [IIA-1-14, N-(4-((4-((4-(4-cyano-2,6-dimethylphenoxy)-7,8-dihydro-6H-thiopyrano[3,2-d]pyrimidin-2-yl)amino)piperidin-1-yl)methyl)phenyl) methanesulfonamide], the EC50 in data set [1] is under 10 nM; in [2], 10 to 100 nM; in data set [3] (setting [9]) it was under 10 nM; in data set [4], under 10 nM; in data set [5], 10 to 100 nM; in [6] it was over 100 nM. In addition, the values for the EC50 in data set [7] and in [8] were under 10 nM and over 100 nM, respectively.
Regarding `Cc1cc(C#N)cc(C)c1Oc1nc(NC2CCN(c3cccc(C#N)c3)CC2)nc2c1SCCC2` [IIC-1-1, 4-((2-((1-(3-cyanophenyl)piperidin-4-yl)amino)-7,8-dihydro-6H-thiopyrano[3,2-d]pyrimidin-4-yl)oxy)-3,5-dimethylbenzonitrile], the EC50 was over 100 nM in [1]; over 100 nM in data set [2]; 10 to 100 nM in [3] (setting [9]); 10 to 100 nM in data set [4]; over 100 nM in [5]; over 100 nM in data set [6]. Also, the EC50 in data set [7] and in data set [8] was over 100 nM throughout.
Regarding `Cc1cc(C#N)cc(C)c1Oc1nc(NC2CCN(c3cccc(C(N)=O)c3)CC2)nc2c1SCCC2` [IIC-1-2, 3-(4-((4-(4-cyano-2,6-dimethylphenoxy)-7,8-dihydro-6H-thiopyrano[3,2-d]pyrimidin-2-yl)amino)piperidin-1-yl)benzamide], the EC50 in [1] was 10 to 100 nM; in [2] it was 10 to 100 nM; in [3] (setting [9]), under 10 nM; in data set [4], under 10 nM; in data set [5] it was under 10 nM; in data set [6], 10 to 100 nM. Also, the EC50 is under 10 nM in data set [7] and over 100 nM in data set [8].
In the case of `Cc1ccnc2c1NC(=O)c1cccnc1N2C1CC1` [NVP, Nevirapine, reference compound], the EC50 in [1] was over 100 nM; in data set [2], over 100 nM; in [3] (Human immunodeficiency virus 1, MT4, MT-4 cells, 50% protection against HIV-1-induced cytopathicity, wt (IIIB), read-out: EC50 (nM) wt), over 100 nM; in [4] it was over 100 nM; in [5] it was over 100 nM; in data set [6], over 100 nM. The EC50 in [7] and in data set [8] was over 100 nM in each case.
Turning to `Cc1cc(/C=C/C#N)cc(C)c1Nc1ccnc(Nc2ccc(C#N)cc2)n1` [RPV, Rilpivirine, reference compound], the EC50 in data set [1] was under 10 nM; in [2], under 10 nM; in data set [3] (setting [9]), under 10 nM; in [4], under 10 nM; in data set [5], 10 to 100 nM; in data set [6], 10 to 100 nM. In addition, the EC50 is under 10 nM in data set [7] and 10 to 100 nM in data set [8].

(Values after US10590145B2, “Tetrahydrothiopyranopyrimidine derivatives as anti-HIV agent” (SHANDONG UNIVERSITY, priority 2016, dated 2020).)
